The target of the experiment is T1, SARS2 protease (Severe acute respiratory syndrome coronavirus 2, UniProt P0DTD1).
T1 construct: SARS2 protease was added to a final concentration of 30 nM
Put plainly: SARS-CoV-2 protease inhibition assay (SARS2 FRET protease assay). Format: biochemical. As to conditions: IC50 (μM), SARS2 protease 30 nM, peptide substrate 1.3 μM, 120 minutes at 37° C., compounds 20 μM to 0.075 nM.
Broadly, the IC50 is the midpoint of a concentration-inhibition curve. Low readings indicate higher potency, high ones lower potency. In the case of `CCC(=O)OC([C@H](C[C@@H]1CCNC1=O)NC(=O)[C@H](CC1CCCCC1)NC(=O)O[C@@H](c1ccccc1)C(F)(F)c1cccc(Cl)c1)S(=O)(=O)O` (stereo partly drawn) [Compound A229, sodium (2S,6S,9S)-1-(3-chlorophenyl)-6-(cyclohexylmethyl)-1,1-difluoro-4,7,12-trioxo-9-(((S)-2-oxopyrrolidin-3-yl)methyl)-2-phenyl-3,11-dioxa-5,8-diazatetradecane-10-sulfonate], the IC50 was ≥ 20 µM. For `O=C(N[C@@H](CC(F)F)C(=O)N[C@@H](C[C@@H]1CCNC1=O)C(=O)C(=O)NC1CC1)OC(c1ccccc1)C(F)(F)c1cccc(Cl)c1` (stereo partly drawn) [Compound A230, 2-(3-chlorophenyl)-2,2-difluoro-1-phenylethyl ((S)-1-(((S)-4-(cyclopropylamino)-3,4-dioxo-1-((S)-2-oxopyrrolidin-3-yl)butan-2-yl)amino)-4,4-difluoro-1-oxobutan-2-yl)carbamate] the value was 0.007 µM. For `CCCC[C@H](NC(=O)OC(c1ccccc1)C(F)(F)c1cccc(Cl)c1)C(=O)N[C@@H](C[C@@H]1CCNC1=O)C(=O)C(=O)NCCO` (stereo partly drawn) [Compound A231, 2-(3-chlorophenyl)-2,2-difluoro-1-phenylethyl ((S)-1-(((S)-4-((2-hydroxyethyl)amino)-3,4-dioxo-1-((S)-2-oxopyrrolidin-3-yl)butan-2-yl)amino)-1-oxohexan-2-yl)carbamate] the value was 0.089 µM. `O=C[C@H](C[C@@H]1CCNC1=O)NC(=O)[C@H](CC(F)F)NC(=O)OC(c1ccccc1)C(F)(F)c1cccc(Cl)c1` (stereo partly drawn) [Compound A232, 2-(3-chlorophenyl)-2,2-difluoro-1-phenylethyl ((S)-4,4-difluoro-1-oxo-1-(((S)-1-oxo-3-((S)-2-oxopyrrolidin-3-yl)propan-2-yl)amino)butan-2-yl)carbamate] came in with an IC50 of 0.022 µM. In the case of `O=C(N[C@@H](CC1CCCCC1)C(=O)N[C@@H](C[C@@H]1CCNC1=O)C(O)S(=O)(=O)O)O[C@H](c1ccccc1)C(F)(F)c1cccc(F)c1` (stereo partly drawn) [Compound A233, sodium (2S)-2-((S)-3-cyclohexyl-2-((((R)-2,2-difluoro-2-(3-fluorophenyl)-1-phenylethoxy)carbonyl)amino)propanamido)-1-hydroxy-3-((S)-2-oxopyrrolidin-3-yl)propane-1-sulfonate], the midpoint of inhibition, the IC50, lay at 0.025 µM. Compound `CCC(C)C[C@H](NC(=O)OC(c1ccccc1)C(F)(F)c1cccc(Cl)c1)C(=O)N[C@H](C=O)C[C@@H]1CCNC1=O` (stereo partly shown) [Compound A234] showed an IC50 of 0.001 µM. Regarding `O=C(N[C@@H](CC1CCCCC1)C(=O)N[C@@H](C[C@@H]1CCNC1=O)C(=O)C(=O)NC1CC1)O[C@@H](c1ccccc1)C(F)(F)c1cccc(F)c1` [Compound A236], the IC50 turned out to be 0.817 µM.

Compound `O=C(N[C@@H](CC1CCCCC1)C(=O)N[C@@H](C[C@@H]1CCNC1=O)C(=O)C(=O)NC1CC1)O[C@H](c1ccccc1)C(F)(F)c1cccc(F)c1` [Compound A237] returned an IC50 of 0.003 µM. As for `CCCC[C@H](NC(=O)OC(c1ccccc1)C(F)(F)c1cccc(Cl)c1)C(=O)N[C@@H](C[C@@H]1CCNC1=O)C(=O)c1nc2ccccc2s1` (stereo partly drawn) [Compound A238, 2-(3-chlorophenyl)-2,2-difluoro-1-phenylethyl ((S)-1-(((S)-1-(benzo[d]thiazol-2-yl)-1-oxo-3-((S)-2-oxopyrrolidin-3-yl)propan-2-yl)amino)-1-oxohexan-2-yl)carbamate], 1.16 µM corresponded to half-maximal inhibition (IC50). `CCNC(=O)C(=O)[C@H](C[C@@H]1CCNC1=O)NC(=O)[C@H](Cc1ccccc1)NC(=O)OC(c1ccccc1)C(F)(F)c1cccc(Cl)c1` (stereo partly drawn) [Compound A240, 2-(3-chlorophenyl)-2,2-difluoro-1-phenylethyl ((S)-1-(((S)-4-(ethylamino)-3,4-dioxo-1-((S)-2-oxopyrrolidin-3-yl)butan-2-yl)amino)-1-oxo-3-phenylpropan-2-yl)carbamate] registered an IC50 of 0.638 µM. In the case of `O=C(N[C@@H](Cc1ccccc1)C(=O)N[C@@H](C[C@@H]1CCNC1=O)C(=O)C(=O)NC1CC1)OC(c1ccccc1)C(F)(F)c1cccc(Cl)c1` (stereo partly drawn) [Compound A241, 2-(3-chlorophenyl)-2,2-difluoro-1-phenylethyl ((S)-1-(((S)-4-(cyclopropylamino)-3,4-dioxo-1-((S)-2-oxopyrrolidin-3-yl)butan-2-yl)amino)-1-oxo-3-phenylpropan-2-yl)carbamate], the IC50 was 0.614 µM. For `CCCC(=O)OC([C@H](C[C@@H]1CCNC1=O)NC(=O)[C@H](CC1CCCCC1)NC(=O)O[C@@H](c1ccccc1)C(F)(F)c1cccc(Cl)c1)S(=O)(=O)O` (stereo partly drawn) [Compound A242, sodium (2S,6S,9S)-1-(3-chlorophenyl)-6-(cyclohexylmethyl)-1,1-difluoro-4,7,12-trioxo-9-(((S)-2-oxopyrrolidin-3-yl)methyl)-2-phenyl-3,11-dioxa-5,8-diazapentadecane-10-sulfonate] the value was 1.2 µM; for `CCCC[C@H](NC(=O)O[C@H](c1ccccc1)C(F)(F)c1cccc(Cl)c1)C(=O)N[C@@H](C[C@@H]1CCNC1=O)C(=O)C(N)=O` [Compound A248, (R)-2-(3-chlorophenyl)-2,2-difluoro-1-phenylethyl ((S)-1-(((S)-4-amino-3,4-dioxo-1-((S)-2-oxopyrrolidin-3-yl)butan-2-yl)amino)-1-oxohexan-2-yl)carbamate], 0.0004 µM.

In the case of `CCCC[C@H](NC(=O)OC(c1ccccc1)C(F)(F)c1cccc(Cl)c1)C(=O)N[C@@H](C[C@@H]1CCNC1=O)C(=O)C(=O)O` (stereo partly drawn) [Compound A250, (3S)-3-((2S)-2-(((2-(3-chlorophenyl)-2,2-difluoro-1-phenylethoxy)carbonyl)amino)hexanamido)-2-oxo-4-((S)-2-oxopyrrolidin-3-yl)butanoic acid], the IC50 is 0.036 µM.

As for `CCCC[C@H](NC(=O)OC(c1cccnc1)C(F)(F)c1cccc(Cl)c1)C(=O)N[C@@H](C[C@@H]1CCNC1=O)C(=O)C(=O)NC1CC1` (stereo partly shown) [Compound A252], the midpoint of inhibition, the IC50, lay at 0.002 µM.

For `O=C[C@H](C[C@@H]1CCNC1=O)NC(=O)[C@H](Cc1ccccc1)NC(=O)O[C@@H](c1ccccc1)C(F)(F)c1cccc(Cl)c1` [Compound A253, (S)-2-(3-chlorophenyl)-2,2-difluoro-1-phenylethyl ((S)-1-oxo-1-(((S)-1-oxo-3-((S)-2-oxopyrrolidin-3-yl)propan-2-yl)amino)-3-phenylpropan-2-yl)carbamate], the IC50 came out at 0.002 µM. `O=C[C@H](C[C@@H]1CCNC1=O)NC(=O)[C@H](Cc1ccccc1)NC(=O)OC(C1CCCCC1)C(F)(F)c1cccc(Cl)c1` (stereo partly shown) [Compound A254] registered an IC50 of 0.002 µM. Consider `CCNC(=O)C(=O)[C@H](C[C@@H]1CCNC1=O)NC(=O)[C@H](Cc1ccccc1)NC(=O)OC(C1CCCCC1)C(F)(F)c1cccc(Cl)c1` (stereo partly drawn) [Compound A255, 2-(3-Chlorophenyl)-1-cyclohexyl-2,2-difluoroethyl ((S)-1-(((S)-4-(ethylamino)-3,4-dioxo-1-((S)-2-oxopyrrolidin-3-yl)butan-2-yl)amino)-1-oxo-3-phenylpropan-2-yl)carbamate], for which the IC50 stood at 0.208 µM. `CCCC[C@H](NC(=O)OC(c1ccncc1)C(F)(F)c1cccc(Cl)c1)C(=O)N[C@H](C=O)C[C@@H]1CCNC1=O` (stereo partly drawn) [Compound A256, 2-(3-Chlorophenyl)-2,2-difluoro-1-(pyridin-4-yl)ethyl ((S)-1-oxo-1-(((S)-1-oxo-3-((S)-2-oxopyrrolidin-3-yl)propan-2-yl)amino)hexan-2-yl)carbamate] gave an IC50 of 0.001 µM.

The record behind these values is patent publication US20240398757A1 (COCRYSTAL PHARMA, INC., priority 2022, published 2024).
